Consider one compound from patent US20230270721A1, “INHIBITION OF BAX-MEDIATED CELL DEATH BY ELTROMBOPAG” (Albert Einstein College of Medicine, priority 2020, published 2023).

Assay [1] has as its target T1, BAX (Homo sapiens, UniProt Q07812).
T1 construct: Human full-length (1-192) wild-type BAX (Q07812); made in house; host or cells: E. coli BL21 (DE3) CodonPlus (DE3)-RIPL
Kind of assay: Competitive fluorescence polarization binding assay (FPA), BAX / FITC-BIM-SAHB. As to conditions: FITC-BIM-SAHB 25 nM. As to the method: Fluorescence polarization assays (FPA) were performed as previously described (Gavathiotis, E., et al. Nat Chem Biol 8, 639-645 (2012)). Direct binding isotherms of BIM-SAHB were measured by incubated FITC-BIM-SAHB (25 nM) with serial dilutions of full-length BAX alone or in the presence of 0.5 or 1 µM EO. Competition binding assays were performed by titrating ED into BAX (150 nM) and FITC-BIM-SAHB (25 nM). Measurements were taken at 10-minute intervals over 60 minutes on a TECAN F200 PRO microplate reader. Reported curves represent 10-minute time point. KD values and IC50 were determined using GraphPad Prism nonlinear fit four-parameter agonist or antagonist versus response with restraints for 100% and 0% bound calculated by the mP of saturated BAX + FITC-BIM-SAHB and FITC-BIM-SAHB alone.
To test this hypothesis, a competitive fluorescence polarization assay (FPA) (Gavathiotis, E., et al. Nat Chem Biol 8, 639-645 (2012)) based on the interaction between BAX and fluorescently-labeled stapled BIM-BH3 peptide (FITC-BIM-SAHB) was used (Gavathiotis, E., et al. Nature 455, 1076-1081 (2008)). […] The IC50 and KD are consistent with a competitive binding mechanism of EO displacing FITC-BIM-SAHB from the N-terminal trigger site of BAX.
On the technique in general: Fluorescence polarisation rises when a labelled molecule tumbles more slowly, as on binding a larger partner.

The target of assay [2] is T2, BAX R134E R145E (Homo sapiens, UniProt Q07812, R134E/R145E).
T2 construct: Human full-length (1-192) wild-type BAX (Q07812); made in house; host or cells: E. coli BL21 (DE3) CodonPlus (DE3)-RIPL
T2 sequence (Q07812 whole entry R134E/R145E): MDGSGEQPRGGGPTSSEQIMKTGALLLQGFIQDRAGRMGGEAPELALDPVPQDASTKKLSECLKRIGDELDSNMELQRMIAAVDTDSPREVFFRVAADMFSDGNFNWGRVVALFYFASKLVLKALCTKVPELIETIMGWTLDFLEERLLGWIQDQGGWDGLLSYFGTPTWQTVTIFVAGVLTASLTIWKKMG
Briefly: Liposomal permeabilization assay, double mutant. The format is biochemical. As to conditions: 250 nM BAX and 5 nM tBID; read-out: IC50, inhibition of liposomal release. How it is done: Lipids (Avanti Polar Lipids) at the following ratio, phosphatidylcholine 48%, phosphatidylinositol 10%, dioleoyl phosphatidylserine 10%, phosphatidylethanolamine, 28%, and tetraoleoyl cardiolipin 4%, were mixed in a total of 1 mg, dried and resuspended in 10 mM HEPES, pH 7, 200 mM KCI, and 5 mM MgCl2 with 12.5 mM 8-aminonaphthalene-1,3,6-trisulfonic acid (ANTS) dye and 45 mM p-xylene-bis-pyridinium bromide (DPX) quencher (Molecular Probes) using a water bath sonicator. Liposomes were formed by extrusion of the suspension using Avanti Mini-Extruder (Cat # 610000) with polycarbonate membranes of 0.1 µm pore size (Avanti Polar Lipids). […] ANTS/DPX release was quantified based on the increase in fluorescence intensity that occurs when the ANTS fluorophore is separated from the DPX quencher upon release from the liposomes into solution. Fluorescence (λex = 355 nm and λem = 520 nm) was measured at 1 minute intervals at room temperature (22-25° C.) indicated using a Tecan Infinite M1000 plate reader. In the case of heat activation, reactions were set up as described in the absence of tBID or BIM, and experiments were recorded at 42° C. The percentage release of ANTS/DPX at any given time point was calculated as percentage release=((F-F0)/(F100-F0))(100), where F0 and F100 are baseline and maximal fluorescence, respectively. […]

Assay [3] concerns BAK KO (BAK-/-) MEFs. Kind of assay: Cytochrome c release assay (ELISA), BAK KO MEFs. The assay is classed as cell-based, mouse. The arrangement: dose or concentration left out as unconfirmed. The settings on record: BIM-BH3 peptide, EO pretreatment 2 hours. How it is done: BAX^-/^- or BAK^-/^- mouse embryonic fibroblasts were maintained in DMEM (Life Technologies) supplemented with 10% FBS, 100 U/mL penicillin/streptomycin, 2 mM I-glutamine, and 0.1 mM MEM nonessential amino acids. MEFs (5×10^4 cells/well) were seeded in a 96 well clear u-bottom plate for 18-24 hr. Media was removed and replaced with media lacking FBS, and cells were treated with varying doses of EO for 2 hours at 37° C. […] Cytochrome c release was determined by decanting 50 µL of the supernatant and analyzing with the rat/mouse cytochrome c quantikine ELISA kit (R&D Systems, MCTO) according to the recommended protocol. […]
It is important to note that THPO-receptor agonist activity of EO is highly specific to the human and chimpanzee THPO-receptors, making mouse cell lines ideal for studying EO modulation of BAX-dependent activity independent of THPO-mediated effects (Erickson-Miller, C. L. et al. Stem Cells 27, 424-430 (2009)). First, mitochondrial cytochrome c release, a hallmark of BAX activation and BAX-dependent apoptosis, was evaluated. […] Next, mitochondrial translocation of cytosolic BAX upon treatment with either BIM BH3 or staurosporine (STS) in BAK KO MEFs was evaluated.

pIC50: −log10 of the molar value.

T1 sequence (Q07812 whole entry): as the sequence (Q07812 whole entry R134E/R145E) above, with E134R, E145R counted along it

Take `CC1=NN(c2ccc(C)c(C)c2)C(=O)/C1=N\Nc1cccc(-c2cccc(C(=O)O)c2)c1O` [EO, eltrombopag]: the pIC50 (as a rule, −log10 of the IC50, conventionally taken in molar units) was 6.68 in assay [1] (BAX 150 nM, 10-minute time point, read-out: half-maximal inhibition IC50, competition of FITC-BIM-SAHB) and below 5.00 in assay [2]. For the same compound, the “affinity of BAX for FITC-BIM-SAHB in the presence of EO” value in assay [1] (direct binding titration of BAX, 0.5 or 1 µM EO) is “decreased affinity”. In addition, the “BIM-BH3 induced release of cytochrome c” value in assay [3] is listed as “significantly inhibited”.
